Laboratory results as given in ChEMBL document CHEMBL3244027, “Syntheses, analgetic activity, and physical dependence capacity of 5-phenyl-6,7-benzomorphan derivatives” (J Med Chem, 1979).
The source made the active and inactive calls. The rule behind the calls is not given here.

What was measured:
Mus musculus [1] = assay: Analgetic activity in po dosed CF1S mouse assessed as writhing by phenylquinone writhing test; assay type: functional
Mus musculus [2] = assay: Analgetic activity in sc dosed CF1S mouse assessed as writhing by phenylquinone writhing test; assay type: functional
Mus musculus [3] = assay: Analgetic activity against CF-1 mouse assessed as increase in reaction time at 320 mg/kg, po by heat stimulus induced tail flick response assay; assay type: functional, organism-based; design: dose 320 mg/kg
[4] = Mus musculus, CF1S, po, read-out: ED50
[5] = Mus musculus, CF1S, sc, read-out: ED50

Structure (SMILES) | ED50 (Mus musculus [2]; [5]) [mg/kg] | Activity (Mus musculus [3]) | also measured
Cl.O=C(CCCN1CCC2(c3ccccc3)CC1Cc1ccccc12)c1ccc(F)cc1 (racemic) | – | – | ED50 (Mus musculus [1]; [4]): > 150 mg/kg
CC(C)O.CC1C2Cc3ccc(O)cc3C1(c1ccccc1)CCN2CC1CC1.Cl (stereo in doubt; 170) | 100 | – | –
CC1C2Cc3ccc(O)cc3C1(c1ccccc1)CCN2CCN1CCOCC1 (stereo not given) | > 100 | inactive | ED50 (Mus musculus [1]; [4]): > 100 mg/kg
CC(C)=CCN1CCC2(c3ccccc3)c3cc(OC(=O)c4ccccc4)ccc3CC1C2C (stereo not given) | > 100 | – | –
CCCCCN1CCC2(c3ccccc3)CC1Cc1ccc(O)cc12.Cl (racemic) | 23 | inactive | –
Br.Clc1ccc(C23CCN(CCc4ccccc4)C(Cc4ccccc42)C3)cc1 (racemic) | > 100 | inactive | –
CN1CCC2(c3ccc(O)cc3)CC1Cc1ccc(O)cc12 (racemic) | – | inactive | –
CC1C2Cc3ccc(O)cc3C1(c1ccccc1)CCN2CCO (racemic) | 44 | – | ED50 (Mus musculus [1]; [4]): > 100 mg/kg
CC(O)C(=O)O.CC1C2Cc3ccc(O)cc3C1(c1ccccc1)CCN2C/C=C/c1cccs1 (stereo not given) | – | inactive | ED50 (Mus musculus [1]; [4]): > 100 mg/kg
CC1C2Cc3ccc(O)cc3C1(c1ccccc1)CCN2CC12CC3CC(CC(C3)C1)C2.Cl (stereo not given) | – | inactive | ED50 (Mus musculus [1]; [4]): > 100 mg/kg
Cl.Oc1ccc2c(c1)C1(c3ccccc3)CCN(CC3CC3)C(C2)C1 (stereo not given) | 15 | – | –
CC1C2Cc3ccc(OC(=O)C(c4ccccc4)c4ccccc4)cc3C1(c1ccccc1)CCN2C(=O)C(c1ccccc1)c1ccccc1.O (stereo not given) | > 100 | inactive | –
CC1C2Cc3ccc(O)cc3C1(c1ccccc1)CCN2CCCN(C)C (stereo not given) | > 120 | – | –
Cl.Oc1ccc2c(c1)C1(c3ccccc3)CCN(CC3CCC3)C(C2)C1 (stereo in doubt; 145) | – | – | ED50 (Mus musculus [2]): 2.8 mg/kg; ED50 (Mus musculus [1]): 34 mg/kg
CC1C2Cc3ccc(O)cc3C1(c1ccccc1)CCN2 (stereo in doubt; 112) | – | inactive | –
C=CCN1CCC2(c3ccccc3)CC1Cc1ccc(O)cc12 (stereo in doubt; 146) [listing 1 of 2 here] | – | – | ED50 (Mus musculus [2]): >30 mg/kg
CC(C)=CCN1CCC2(c3ccccc3)c3cc(O)ccc3CC1C2C.Cl (stereo in doubt; 169) | – | – | ED50 (Mus musculus [2]): 41 mg/kg
CC1C2Cc3ccc(O)cc3C1(c1ccccc1)CCN2C(=O)C1CC1 (stereo not given) | > 100 | inactive | –
CN1CCC2(c3ccccc3)CC1Cc1ccccc12.O=C(O)C(O)C(O)C(=O)O (stereo in doubt; 37) | – | – | ED50 (Mus musculus [2]): 8 mg/kg
CC1C2Cc3ccc(O)cc3C1(c1ccccc1)CCN2CC1CCC1.Cl (stereo in doubt; 171) | – | – | ED50 (Mus musculus [2]): >100 mg/kg
Oc1ccc(C23CCNC(Cc4ccc(O)cc42)C3)cc1 (racemic) | – | inactive | –

Structure (SMILES) | ED50 (Mus musculus [2]; [5]) [mg/kg] | Activity (Mus musculus [3]) | also measured
Cl.Oc1ccc2c(c1)C1(c3ccccc3)CCN(CC3CCC3)C(C2)C1 (racemic) | – | – | ED50 (Mus musculus [2]): 6.2 mg/kg; ED50 (Mus musculus [1]): 124 mg/kg
CCCCC(=O)Oc1ccc2c(c1)C1(c3ccccc3)CCN(CC3CCC3)C(C2)C1.Cl (racemic) | – | – | ED50 (Mus musculus [1]; [4]): > 100 mg/kg
CC(C)=CCN1CCC2(c3ccccc3)c3cc(O)ccc3CC1C2C.Cl (stereo in doubt; 207) | 39 | – | –
C=C(Br)CN1CCC2(c3ccccc3)CC1Cc1ccc(O)cc12 (racemic) | > 100 | – | –
Cc1ccc(S(=O)(=O)Oc2ccc3c(c2)C2(c4ccccc4)CCN(C)C(C3)C2C)cc1.Cl (stereo not given) | > 100 | – | –
Oc1ccc2c(c1)C1(c3ccccc3)CCN(CCc3cccs3)C(C2)C1 (racemic) | – | inactive | –
CC(C)=CCN1CCC2(c3ccccc3)CC1Cc1ccc(O)cc12 (racemic) | 15 | – | –
CC1C2Cc3ccc(O)cc3C1(c1ccccc1)CCN2C/C=C/Cl (stereo not given) | > 100 | inactive | –
Br.Oc1ccc2c(c1)C1(c3ccccc3)CCN(CCN3CCOCC3)C(C2)C1 (racemic) | > 100 | inactive | –
C=CCN1CCC2(c3ccccc3)CC1Cc1ccc(O)cc12 (racemic) | – | – | ED50 (Mus musculus [2]): >100 mg/kg
CC(C)O.Oc1ccc2c(c1)C1(c3ccccc3)CCNC(C2)C1 (stereo not given) | > 100 | – | –
CC1C2Cc3ccc(O)cc3C1(c1ccccc1)CCN2CC1CCC1.CS(=O)(=O)O (racemic) | – | – | ED50 (Mus musculus [1]; [4]): > 100 mg/kg
CC1C2Cc3ccc(OC(=O)c4ccc([N+](=O)[O-])cc4)cc3C1(c1ccccc1)CCN2C (stereo not given) | 0.6 | – | –
CC1C2Cc3ccc(O)cc3C1(c1ccccc1)CCN2CC1CCC1.Cl (stereo in doubt; 219) | – | – | ED50 (Mus musculus [2]): 28 mg/kg; ED50 (Mus musculus [1]; [4]): 300 mg/kg
CC1C2Cc3ccc(O)cc3C1(c1ccccc1)CCN2CCC(c1ccccc1)c1ccccc1 (stereo in doubt; 188) | – | inactive | –
CC1C2Cc3ccc(O)cc3C1(c1ccccc1)CCN2C(=O)C12CC3CC(CC(C3)C1)C2.O (stereo not given) | – | – | ED50 (Mus musculus [1]; [4]): > 100 mg/kg
C#CCN1CCC2(c3ccccc3)CC1Cc1ccc(OC(=O)c3ccccc3)cc12 (racemic) | > 100 | – | –
C[C@@H]1C2Cc3ccc(OS(C)(=O)=O)cc3C1(c1ccccc1)CCN2C (stereo not given in full) | 5.3 | – | –
C=CCN1CCC2(c3ccccc3)CC1Cc1ccc(O)cc12 (stereo in doubt; 146) [listing 2 of 2 here] | – | inactive | –
C[C@@H]1C2Cc3ccc(O)cc3C1(c1ccccc1)CCN2CC(=O)O (stereo not given in full) | > 100 | – | –
